The results in this text go back to ChEMBL document CHEMBL1157539, “Thousands of chemical starting points for antimalarial lead identification” (Nature, 2010).

In this assay the test system is Plasmodium falciparum. Briefly: GSK_TCMDC: Inhibition of Plasmodium falciparum 3D7 in whole erythrocytes, using parasite LDH activity as an index of growth. Format: functional, organism-based. The following applies: Plasmodium falciparum, 3D7.

On to `O=C(Nc1cccc(-c2ccc(CN3CCCC3)cc2)c1)c1ccc(F)cc1`, for which the XC50 turned out to be 1080 nM.

As to `NS(=O)(=O)c1ccc(CNc2ccc3ncc(-c4ccc(Cl)cc4)n3n2)cc1`, the XC50 turned out to be 284 nM. Under `CCC(CC)n1c(C)cc2c3c(N)nc(N)nc3ccc21` stands 3.2 nM. Under `COc1ccc2nccc(CCN3CC(O)C(CNCc4ccc5c(n4)NC(=O)CS5)C3)c2n1` (centres undefined) stands 1460 nM. Under `NC1=NC(c2ccccc2)(c2ccccc2)C(=O)N1Cc1ccccc1Br` stands 865 nM; under `CC(C)NCc1cccc(-c2ccc(-c3nc4cc(C(F)(F)F)ccc4[nH]3)cc2)c1`, 193 nM; under `CC[C@H](C)CNC(=O)c1cccc(-c2cccc(CN3CCC(N4CCCC4)CC3)c2)n1`, 706 nM. Consider `CS(=O)(=O)Nc1ccc(-c2ccc3ccnc(N)c3c2)cc1`, for which the XC50 amounted to 614 nM. As for `O=S(=O)(NCCN1CCCC1)c1ccc(-c2cccc(CNCCc3cccs3)c2)cc1`, the XC50 was 928 nM.

For the compound `COc1nc2c(N3CCN(CCNCc4ccc5c(n4)NC(=O)CS5)CC3)ccnc2cc1F`, the XC50 amounted to 713 nM. Under `CC1CCCCC1N(C)C1CCN(CCCNC(=O)C=Cc2cccc(C(F)(F)F)c2)CC1` (centres undefined) stands 772 nM. Under `COc1ccccc1-c1cc(C(=O)N2CCN(S(=O)(=O)c3ccc(C)cc3)CC2)[nH]n1` stands 1160 nM. Under `COc1ccc(S(=O)(=O)Nc2cc(C)cc(Br)c2OC)cc1N1CCN(C(=O)C(Cl)(Cl)Cl)CC1` stands 871 nM.

In the case of `CCc1cccc(OCCCON2C(=N)N=C(N)NC2(C)C)c1`, the XC50 is 3.2 nM. Under `CN(C)CCNC(=O)c1cccc(-c2cnc3ccc(NCc4ccc(Cl)c(Cl)c4)nn23)c1` stands 698 nM; under `Nc1nc(N)c2cc(Sc3ccc4ccccc4c3)ccc2n1`, 17.1 nM; under `CCN(CC)CC#Cc1ccc2[nH]c(C)c(Cl)c(=O)c2c1`, 702 nM.

For `O=C(c1ccc(Cl)c(Cl)c1)N1CCc2c([nH]c3ccccc23)C1CN1CCCC1` (centres undefined), the XC50 came to 825 nM.

The compound `COc1ccc(C2CCN(CCCNC(=O)c3ccc(NC(=O)c4ccc(Cl)cc4)cc3)CC2)c(OC)c1` had an XC50 of 763 nM. Under `CC(C)(C)c1ccccc1OC(=O)c1ccccc1` stands 740 nM.

Regarding `O=C(Nc1cccc(-c2cccc(-c3nc4ccccc4[nH]3)c2)c1)c1csnn1`, the XC50 came out at 921 nM. `Cn1cnc2c(Nc3ccncc3)nc(-c3ccc4c(c3)OCO4)nc21`: the XC50 came to 1110 nM.

In the case of `CC(C)C[C@H](NC(=O)c1ccc(OCCN2CCOCC2)cc1)C(=O)N[C@H](/C=N/N1CCN(C)C1=O)CCc1ccccc1`, the XC50 was 294 nM. In the case of `CCC(C)NC(=O)Nc1ccc(-c2cccc(-c3nc4ccccc4[nH]3)c2)cc1` (centres undefined), the XC50 came to 821 nM. In turn, `O=c1cc(NCCC2CC=CCN2Cc2ccc(Cl)c(Cl)c2)[nH]c2ccccc12` (centres undefined) registered an XC50 of 1730 nM. Under `O=C(NC1CC1c1ccccc1)N(CCCn1ccnc1)Cc1csc(-c2ccc(CNCc3ccccc3)cc2)n1` (centres undefined) stands 854 nM. Under `Oc1ccc(CCNc2nc(NCCCOc3ccccc3-c3ccc(F)cc3)nc(N3CCNCC3)n2)cc1` stands 1080 nM; under `CC(Oc1c(C2CCN(CCCCNC(=O)c3ccc(-c4ccc(C#N)cc4)cc3)CC2)ccc2c1CCCC2)C(N)=O` (centres undefined), 678 nM; under `COc1ccc2ccccc2c1C=NN=c1cc[nH]c2ccc(F)cc12`, 1110 nM. Under `c1cnc2ccc(NCc3ccc(-c4ccc(CNC5CCCC5)cc4)cc3)cc2c1` stands 874 nM.

`COc1ccc2nccc([C@@H](O)CN3CCC(NCc4nc5ccc(F)cc5[nH]4)CC3)c2c1` had an XC50 of 732 nM. Under `O=C(Nc1ccc(N2CCCCC2)c(Cl)c1)c1nc[nH]n1` stands 449 nM; under `CCCCCCN1CCC(CNCc2cccc([N+](=O)[O-])c2)CC1`, 720 nM; under `O=C1C(c2ccccc2)=C(Nc2ccc(Cl)cc2)c2ccccc21`, 613 nM. Under `O=C(Nc1ccc(C(F)(F)F)cc1)c1cccc(S(=O)(=O)NC2CCN(Cc3ccccc3)C2)c1` (centres undefined) stands 1050 nM; under `CSc1nc2nc(C)c(Cc3cccc(F)c3)c(C)n2n1`, 904 nM.

In turn, `CCCc1ccc(NC(=O)c2ccc(CN3CCCN(Cc4cccc(O)c4)CC3)cc2)cc1` came in with an XC50 of 396 nM. Under `CCNc1cc(CCCC(=O)OCC)nc(Nc2ccc(C)cc2)n1` stands 771 nM; under `Cc1c(CC(=O)N(C)C2CCN(CCCCCNC(=O)/C=C/c3ccc(Cl)c(Cl)c3)CC2)sc2ccc(Cl)cc12`, 1160 nM; under `O=C(NCCCCN1CCN(c2ccc3c(c2)CCC3)CC1)c1ccc(NC(=O)c2ccc(Cl)cc2)cc1`, 677 nM. Under `Cc1cc(N[C@@H](Cc2ccccc2)C(=O)NCCOc2ccccc2)nc(NCc2ccccc2C)n1` stands 711 nM; under `N#CCCN1CCN(Cc2ccc(-c3ccc(-c4nc5cc(F)ccc5[nH]4)s3)cc2)CC1`, 659 nM. Under `COC(=O)C(C)NCC(=O)c1ccccc1` (centres undefined) stands 115 nM; under `CCOc1cccc(C(=O)Nc2nonc2-c2ccc(OC)c(OC)c2)c1`, 1020 nM; under `N#CC(CC(=O)c1ccc(Cl)cc1)c1cccc(F)c1` (centres undefined), 854 nM. The compound `CCCCCCN1CCCN(Cc2ccc(C(=O)Nc3ccc(F)c(F)c3)cc2)CC1` registered an XC50 of 612 nM.

In turn, `CC1(C)NC(=N)NC(=N)N1OCC=Cc1ccccc1` showed an XC50 of 4.24 nM. Under `COc1cc(Cc2cnc(N)nc2N)cc(OCCCCc2ccc([N+](=O)[O-])cc2)c1OC` stands 989 nM; under `O=C(Nc1cccc(F)c1)N1CCC(CN2CCOC(c3ccccc3)(c3ccccc3)C2)CC1`, 198 nM; under `O=C1OC(c2cc3ccccc3n2S(=O)(=O)c2ccccc2)(c2cc3ccccc3n2S(=O)(=O)c2ccccc2)c2ccccc21`, 846 nM.

For the compound `CC12CCC(C(=O)N(CC(O)Cn3c4ccc(Cl)cc4c4cc(Cl)ccc43)C1=O)C2(C)C` (centres undefined), the XC50 stood at 844 nM.

In turn, `Cc1ccccc1C1CCN(c2ccc(C(=O)Nc3ccc(F)cc3)cn2)CC1` showed an XC50 of 194 nM. Under `Cc1nc(C)c(-c2ccc(Oc3cc(Cl)cc(Cl)c3)cc2)c(O)c1Br` stands 242 nM; under `O=C(/C=C/c1ccc(Cl)c(Cl)c1)NCCCCCN1CCCN(C(=S)Nc2cccc(Cl)c2)CC1`, 1050 nM. `Cc1cc(OCCCN2CCC(NS(=O)(=O)c3cccc(Br)c3)CC2)c2ccccc2n1` displayed an XC50 of 1110 nM.

`O=c1cc(NCCCNCc2ccc3c(c2)OC(F)(F)O3)[nH]c2ccccc12` gave an XC50 of 770 nM. Under `Fc1ccc2[nH]c(-c3ccc(-c4ccc(CNCCN5CCNCC5)cc4)cc3)nc2c1` stands 850 nM; under `CCN(CC)CCCN(Cc1ccc(-c2ccc(C(F)(F)F)cc2)cc1)C(=O)Cn1c(SCc2cccc(F)c2F)cc(=O)c2ccccc21`, 1320 nM; under `COc1cc2c(cc1C=CC(=O)N1CCN(Cc3nc(O)c4c(C)c(C)sc4n3)CC1)OC(C)C2` (centres undefined), 1020 nM. Under `O=C(Nc1nc(-c2cc(F)ccc2F)cs1)c1cncc(Br)c1` stands 1080 nM. Under `COC(=O)Nc1nc2cc3c(cc2s1)OCCO3` stands 841 nM. Turning to `Cc1ccc(N2C(N)=NC(N)=NC2(C)C)cc1Cl`, the XC50 turned out to be 6.82 nM. As to `COc1ccc(-c2cccc(NC(=O)c3cccc(Cl)c3)c2)cc1CN1CCNCC1`, the XC50 came out at 803 nM. Under `CCC(C)Oc1ccc(CCCON2C(N)=NC(N)=NC2(C)C)cc1` (centres undefined) stands 3.2 nM; under `CNC(=O)c1cnc(Nc2ccc(N3CCN(C)CC3)cc2)nc1Nc1cccc(OC)c1`, 752 nM; under `COc1ccc2nccc(C(=O)NC3CCC(CCN4CCc5cc(C#N)ccc5C4)CC3)c2c1` (centres undefined), 1160 nM.

For the compound `COCCNCC(O)Cn1c2ccc(Cl)cc2c2cc(Cl)ccc21` (centres undefined), the XC50 came to 52 nM.

For the compound `CCCn1c(Sc2ccc(C#N)c([N+](=O)[O-])c2)nnc1-c1ccc(N(C)C)cc1`, the XC50 worked out at 125 nM. Under `Cc1cccc(C(=O)N2CCN(Cc3cccc(NC(=O)c4ccco4)c3)CC2)c1` stands 761 nM; under `O=C(N[C@H]1CCN(Cc2ccc(OCCN3CCNCC3)c3ccccc23)C1)c1ccc(Cl)c(Cl)c1`, 748 nM; under `O=S(=O)(NCCN1CCCC1)c1cccc(-c2ccccc2CNC2Cc3ccccc3C2)c1`, 738 nM. For the compound `Cc1cccc2nc(-c3cccc(-c4ccc(NC(=O)Cc5ccc[n+]([O-])c5)cc4)c3)[nH]c12`, the XC50 was found to be 627 nM.

In turn, `CC(C)(C)OC(=O)n1cc(C2CCN(CCCC34CCCc5cccc(c53)NC4=O)CC2)c2ccncc21` (centres undefined) registered an XC50 of 876 nM. Under `COc1ccccc1OCCN(CC(O)COc1cccc2[nH]c3ccccc3c12)CC(O)COc1cccc2[nH]c3ccccc3c12` (centres undefined) stands 636 nM. Under `COc1cc2c(cc1OCCN1CCC(N3CCCCC3)CC1)N(C(=O)/C=C/c1ccccc1Cl)CC2` stands 280 nM; under `Nc1c2ccccc2nc2ccc(Cl)cc12`, 805 nM; under `CNC(=O)NC1=NC(C)(C)N(OCCCOc2cc(Cl)c(Cl)cc2Cl)C(N)=N1`, 935 nM. With `O=C(Cn1c2ccccc2c(=O)c2ccc(Cl)cc21)Nc1ccc(C(F)(F)F)cc1`, the XC50 came out at 530 nM.

In the case of `CCC[C@@H]([C@@H](CC1CCCCC1)C(=O)NC(C(=O)Nc1nccs1)C(CC)c1ccccc1)N(O)C=O` (some centres undefined), the XC50 is 689 nM. Under `O=C(NCCCCN1CCC(O)(c2ccc3c(c2)OCO3)CC1)c1ccc(NC(=O)c2ccc(Cl)cc2)cc1` stands 1180 nM. Under `COc1cccc2c(NN=Cc3cccc(Cl)c3)cc(C)nc12` stands 709 nM; under `Cc1[nH]c(C)c(-c2ccc(-c3ccc(OC(F)(F)F)cc3)cc2)c(=O)c1Br`, 38.6 nM. Under `NOCCCOc1ccc(Cl)cc1` stands 574 nM; under `COc1ccc(N(C)Cc2cnc3nc(N)nc(N)c3n2)cc1`, 284 nM. The compound `Cc1cc(C(=O)Nc2ccc(OCc3ccccc3)cc2)on1` registered an XC50 of 991 nM. Regarding `O=C(Nc1cccc(Cl)c1)c1cnc(N2CCN(c3ccncc3)CC2)c(Cl)c1`, the XC50 turned out to be 963 nM. Under `O=C(Nc1ccc(N2CCN(Cc3c[nH]c4cc(F)ccc34)CC2)cc1)c1ccccc1-c1ccc(C(F)(F)F)cc1` stands 985 nM.

The compound `COc1ccc(-c2ccc(S(=O)(=O)Nc3cc4c(cc3OC(C)C)CCN(C)CC4)cc2)cc1` had an XC50 of 686 nM. Under `Fc1ccc2[nH]c(-c3cccc(-c4ccc(CN5CCN(c6ccncc6)CC5)cc4)c3)nc2c1` stands 211 nM.
